The target in one assay is T1, FLT3 (Homo sapiens, UniProt P36888).
T1 construct: purchased Carna 08-145
T1 sequence (P36888 27-993): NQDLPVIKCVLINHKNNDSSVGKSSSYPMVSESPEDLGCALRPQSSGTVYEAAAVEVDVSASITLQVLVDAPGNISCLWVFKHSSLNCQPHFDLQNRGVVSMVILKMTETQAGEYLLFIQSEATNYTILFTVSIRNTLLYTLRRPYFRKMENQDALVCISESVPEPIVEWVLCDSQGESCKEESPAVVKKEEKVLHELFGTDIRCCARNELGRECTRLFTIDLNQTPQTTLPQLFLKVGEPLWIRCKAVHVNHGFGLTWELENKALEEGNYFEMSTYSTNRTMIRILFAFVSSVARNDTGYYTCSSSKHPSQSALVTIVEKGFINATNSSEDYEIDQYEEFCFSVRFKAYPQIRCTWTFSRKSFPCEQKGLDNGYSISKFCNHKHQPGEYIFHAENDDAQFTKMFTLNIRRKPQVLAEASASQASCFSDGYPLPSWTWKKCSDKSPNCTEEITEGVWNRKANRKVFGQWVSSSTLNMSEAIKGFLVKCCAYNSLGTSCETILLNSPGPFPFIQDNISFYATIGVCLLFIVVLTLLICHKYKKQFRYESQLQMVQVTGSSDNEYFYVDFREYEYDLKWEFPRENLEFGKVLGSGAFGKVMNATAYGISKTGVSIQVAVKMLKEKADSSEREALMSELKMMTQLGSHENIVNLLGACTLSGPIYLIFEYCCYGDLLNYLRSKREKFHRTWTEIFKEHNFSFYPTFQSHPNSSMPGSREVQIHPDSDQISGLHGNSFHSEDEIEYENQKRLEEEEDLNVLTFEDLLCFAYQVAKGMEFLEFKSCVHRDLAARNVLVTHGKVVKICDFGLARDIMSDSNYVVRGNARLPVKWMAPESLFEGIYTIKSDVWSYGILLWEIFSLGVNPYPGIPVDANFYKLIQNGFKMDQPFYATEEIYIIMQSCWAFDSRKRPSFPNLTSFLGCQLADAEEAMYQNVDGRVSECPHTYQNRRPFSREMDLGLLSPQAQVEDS
As to the kind of experiment: FLT3 kinase in vitro inhibitory activity experiment (Caliper mobility shift, conversion rate). The assay is classed as biochemical. The settings on record: IC50 class, read-out: Enzyme activity FLT3. As to the method:
Biological Test Example 1: FLT3 Kinase In Vitro Inhibitory Activity Experiment
Centrifuge (manufacturer: Eppendorf, model: 5430), microplate reader (manufacturer: Perkin Elmer, model: Caliper EZ Reader II), Echo 550 (manufacturer: Labcyte, model: Echo 550)
1. Kinase Reaction Process
• (1) 1×Kinase buffer was prepared. • (2) Preparation of the serial compound dilutions: the initial stock (the concentration of the tested compound was 1 μM) was diluted by 3-fold into 10 concentrations, and was single-well detected. The compounds were series diluted to solutions of 10 different concentration (100-folds final concentration) in 384-well plates. 250 nl of solution was transferred to each well of 384-well plate by Echo550. 100% DMSO (250 nl) was added to negative control wells and positive control wells respectively. • (3) Kinase solution (2.5 times final concentration) was prepared with 1×Kinase buffer. • (4) 10 μL of kinase solution (2.5 times final concentration) was added to compound wells and positive control wells respectively: 1×Kinase buffer (10 μL) was added to the negative control wells. • (5) The solution was centrifuged at 1000 rpm for 30 seconds, shaked and mixed, and incubated at room temperature for 10 minutes. • (6) The mixed solution of ATP and Kinase substrate 2 (25/15 times final concentration) was prepared with 1×Kinase buffer. • (7) 15 μL of mixed solution ATP and Kinase substrate 2 (25/15 times final concentration) was added to initiated the reaction. • (8) 384 well plate was centrifuged at 1000 rpm for 30 seconds, shaked and mixed, then incubated at room temperature for 30 minutes. • (9) Stop solution (30 μL) was added to stop kinase reaction, and the solution was centrifuged at 1000 rpm for 30 seconds, shaked and mixed. • (10) The conversion rate was read with Caliper EZ Reader II. 2. Data Analysis Formula for Calculation
Wherein: Conversion %_sample is the reading of the sample conversion; Conversion %_min: negative control well.

A further assay concerns MV4;11 cells. Nature of the assay: MV4;11 in vitro inhibition of proliferation assay (CellTiter-Glo, 72 hours). The assay is classed as cell-based. The note with it: Homo sapiens, MV4-11, 72 h, IC50 class, read-out: Inhibitory activity of cell proliferation MV4;11. The text has this:
Biological Test Example 2: MV4;11 In Vitro Inhibition of Proliferation Assay
The MV4;11 cell lines were purchased from the cell bank of the Chinese Academy of Sciences, IMDM medium (Gibco, catalog number 12440), fetal bovine serum (Gibco, catalog number 10099141C), penicillin-streptomycin antibiotics (Gibco, catalog number 15140122), DMSO (Sigma, catalog number D2650), Celltiter-Glo kit (CTG) (Promega, catalog number G7573), 384-well clear flat-bottom black cell culture plate (Corning, catalog number 3764), D300e digital dispenser (Tecan, catalog number D300e), SpectraMax i3x microplate reader (MOLECULAR DEVICES, catalog number i3x)
MV4;11 cell was cultivated in IMDM, 10% fetal bovine serum, 1% penicillin-streptomycin antibiotics, and cell density was kept less than 1.0*10E6 cells per ml to ensure that it was always in logarithmic growth phase. Cell viability was greater than 95%.
The compounds to be tested was diluted by 3 times from 10 uM with DMSO to 9 concentrations. 60 nl diluted compound was added to the cell culture plate and three duplicates were set up.
The prepared MV4;11 cell suspension was added to the 384-well plate, and 20 microliters of cell suspension was added per well, i.e., each well contained 2000 MV4;11 cells, of which the final concentration of DMSO was 0.3%. The cell culture plate was placed in 37° C. and incubated in a 5% carbon dioxide incubator for 72 hours.
20 μL of Promega CellTiter-Glo reagent was added to per well, and the plate was incubated at room temperature for 10 minutes when the luminescence signals were stable. SpectraMax i3x microplate reader was used to read signals.
The original data was converted into inhibition rate, and the IC50 value (half inhibition concentration) of the compound was determined by fitting the nonlinear four-parameter curve.
For orientation: In ATP-based viability assays light output follows the ATP content of the culture.

In the case of `CCc1nc2c(N)ncc(-c3ccc(N4CCC(CN5CCN(C)CC5)CC4)c(OC)c3)c2nc1NC1CCOCC1` [Compound 45, 3-ethyl-8-(3-methoxy-4-(4-((4-methylpiperazine-1-yl)methyl)piperidine-1-yl)phenyl)-N2-(tetrahydro-2H-pyran-4-yl)pyridino[3,4-b]pyrazine-2,5-diamine], the IC50 at FLT3 was ≤ 10 nM; in the assay with MV4;11 cells, 10 to 100 nM.
`CCc1nc2c(N)ncc(-c3ccc(N4CCC(N5CCN(C)CC5)C4)c(OC)c3)c2nc1NC1CCOCC1` (centres unmarked) [Compound 46]: the figures for the IC50 on FLT3 and in the assay on MV4;11 cells were ≤ 10 nM and 10 to 100 nM, respectively.
As for `CCc1nc2c(N)ncc(-c3ccc(N4CCC(N(C)CCN(C)C)CC4)c(OC)c3)c2nc1NC1CCOCC1` [Compound 48], the IC50 on FLT3 was ≤ 10 nM; in the assay with MV4;11 cells, 10 to 100 nM.
In the case of `CCc1nc2c(N)ncc(-c3cnn(C4CCNCC4)c3)c2nc1NC1CCOCC1` [Compound 58], the results for the IC50 at FLT3 and in the assay with MV4;11 cells were ≤ 10 nM and 10 to 100 nM, respectively.
For `CCc1nc2c(N)ncc(-c3ccc(N4CCC(N5CCN(C)CC5)CC4)c(OC)c3)c2nc1N[C@H]1CC[C@H](O)CC1` [Compound 65], the IC50 on FLT3 is ≤ 10 nM; with MV4;11 cells, 10 to 100 nM.
The corresponding values for `CCc1nc2c(N)ncc(-c3ccc(N4CCC(N5CCN(C)CC5)CC4)c(OC)c3)c2nc1NC1CCN(C)CC1` [Compound 66] are ≤ 10 nM and 10 to 100 nM.
For `CCc1nc2c(N)ncc(-c3ccc(N4CCC(N5CCN(C)CC5)CC4)c(OC)c3)c2nc1NC1CCC(O)C1` (centres unmarked) [Compound 67], the IC50 was ≤ 10 nM on FLT3 and 10 to 100 nM in the assay on MV4;11 cells.
The corresponding values for `CCc1nc2c(N)ncc(-c3ccc(N4CCC(N5CCN(C)CC5)CC4)c(OC)c3)c2nc1NCC(C)(C)O` [Compound 68] are ≤ 10 nM and 10 to 100 nM.
The corresponding values for `CCc1nc2c(N)ncc(-c3ccc(N4CCC(N5CCN(C)CC5)CC4)c(OC)c3)c2nc1N[C@H]1CC[C@H](O)C1` [Compound 69] are ≤ 10 nM and 100 to 500 nM.
On to `CCc1nc2c(N)ncc(-c3ccc(N4CCC(N5CCN(C)CC5)CC4)c(OC)c3)c2nc1N[C@@H]1CC[C@@H](O)C1` [Compound 70], for which the IC50 at FLT3 and in the assay on MV4;11 cells was ≤ 10 nM each time.
Consider `CCc1nc2c(N)ncc(-c3ccc(N4CCC(N5CCN(C)CC5)CC4)c(OC)c3)c2nc1N[C@H]1CC[C@@H](O)C1` [Compound 71], for which the figures for the IC50 on FLT3 and with MV4;11 cells were ≤ 10 nM and 10 to 100 nM, respectively.
For the molecule `CCc1nc2c(N)ncc(-c3ccc(N4CCC(N5CCN(C)CC5)CC4)c(OC)c3)c2nc1N[C@@H]1CC[C@H](O)C1` [Compound 72], the IC50 on FLT3 and with MV4;11 cells was ≤ 10 nM each time.
For the molecule `CCc1nc2c(N)ncc(-c3ccc(N4CCC(N5CCN(C)CC5)CC4)c(OC)c3)c2nc1NC(C)C` [Compound 77], the IC50 was ≤ 10 nM on FLT3 and 10 to 100 nM in the assay with MV4;11 cells.
Consider `CCc1nc2c(N)ncc(-c3ccc(N4CCC(N5CCN(C)CC5)CC4)c(OC)c3)c2nc1NC1CCCC1O` (centres unmarked) [Compound 78], for which the IC50 at FLT3 is ≤ 10 nM; in the assay on MV4;11 cells it was 10 to 100 nM.
The corresponding values for `CCc1nc2c(N)ncc(-c3ccc(N4CCC(N5CCN(C)CC5)CC4)c(OC)c3)c2nc1NC1CCOC1` (centres unmarked) [Compound 79] are ≤ 10 nM and 10 to 100 nM.
Regarding `CCc1nc2c(N)ncc(-c3ccc(N4CCC(N5CCN(C)CC5)CC4)c(OC)c3)c2nc1NC1CCCOC1` (centres unmarked) [Compound 83], the IC50 on FLT3 is ≤ 10 nM; in the assay on MV4;11 cells, 10 to 100 nM.
The corresponding values for `CCc1nc2c(N)ncc(-c3ccc(N4CCC(N5CCN(C)CC5)CC4)c(OC)c3)c2nc1NCC1CCOCC1` [Compound 85] are ≤ 10 nM and 10 to 100 nM.
Take `CCc1nc2c(N)ncc(-c3ccc(N4CCC(N5CCN(C)CC5)CC4)c(OC)c3)c2nc1NC1CCCC1` [Compound 92]: the results for the IC50 on FLT3 and in the assay with MV4;11 cells were ≤ 10 nM and 10 to 100 nM, respectively.
Regarding `[2H]C([2H])([2H])N1CCN(C2CCN(c3ccc(-c4cnc(N)c5nc(CC)c(NC6CCOCC6)nc45)cc3OC)CC2)CC1` [Compound 121], the IC50 was ≤ 10 nM at FLT3 and 10 to 100 nM in the assay on MV4;11 cells.

The values are drawn from patent publication US12673947B2 (Cytosinlab Therapeutics Co., Ltd., priority 2020, dated 2026).
